Consider 31 compounds from patent EP2776398B1, “SUBSTITUTED PYRAZOLYL-BASED UREA DERIVATIVES AS VANILLOID RECEPTOR LIGANDS” (Medifron DBT Inc., priority 2011, dated 2013).

The target in the first experiment is T1, vanilloid receptor 1 (VR1/TRPV1 receptor) (Homo sapiens, UniProt Q8NER1).
T1 construct: expressed in transfected cells; host or cells: CHO K1 cells (ECACC), stably transfected
T1 sequence (Q8NER1 whole entry): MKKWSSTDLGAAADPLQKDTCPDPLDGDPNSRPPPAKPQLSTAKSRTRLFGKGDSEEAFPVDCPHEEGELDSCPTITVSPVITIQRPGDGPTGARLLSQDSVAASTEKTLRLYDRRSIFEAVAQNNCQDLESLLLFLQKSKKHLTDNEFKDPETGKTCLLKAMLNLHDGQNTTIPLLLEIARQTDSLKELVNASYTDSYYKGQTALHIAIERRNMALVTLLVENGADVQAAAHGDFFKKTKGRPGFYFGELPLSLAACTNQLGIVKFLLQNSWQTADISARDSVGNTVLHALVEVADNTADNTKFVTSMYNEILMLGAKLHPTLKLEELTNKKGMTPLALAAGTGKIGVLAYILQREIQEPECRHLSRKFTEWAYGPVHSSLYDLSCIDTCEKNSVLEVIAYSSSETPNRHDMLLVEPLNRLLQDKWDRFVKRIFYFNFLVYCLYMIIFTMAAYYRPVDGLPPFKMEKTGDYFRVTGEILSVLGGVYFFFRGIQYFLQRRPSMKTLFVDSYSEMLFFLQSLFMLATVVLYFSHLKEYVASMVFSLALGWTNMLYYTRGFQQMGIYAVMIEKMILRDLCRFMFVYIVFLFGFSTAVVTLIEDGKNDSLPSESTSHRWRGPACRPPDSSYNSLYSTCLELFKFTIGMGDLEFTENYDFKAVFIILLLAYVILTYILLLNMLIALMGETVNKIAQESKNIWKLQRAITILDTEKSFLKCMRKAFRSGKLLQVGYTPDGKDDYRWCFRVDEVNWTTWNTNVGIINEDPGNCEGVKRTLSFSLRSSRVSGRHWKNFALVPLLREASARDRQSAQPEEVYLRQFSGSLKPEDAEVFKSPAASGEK
The experiment can be described thus: Functional testing on vanilloid receptor 1: FLIPR Ca2+ influx assay against capsaicin (Cap) in transfected CHO K1 cells (pharmacological method II). As to Ki: 100 nM capsaicin. In kind it is cell-based. More on the design: key to (f) Ki (human being) [nM] Cap: agonist classification: AG = agonist. As to conditions: @ 1µM; human VR1 in CHO K1 cells; capsaicin; relative to maximum inhibition with 10 µM capsazepine; read-out: inhibition (as a percentage), printed in column (f) Ki (human being) [nM] Cap.
Text: […]
For orientation: inhibition means the percentage by which the read-out fell short of the control. Take `CC(C(=O)NCc1cc(C(C)(C)C)nn1-c1ccc(F)cc1)c1ccc(COCCO)c(F)c1` (stereo not shown) [A124, N-[[5-tert-Butyl-2-(4-fluorophenyl)-2H-pyrazol-3-yl]-methyl]-2-[3-fluoro-4-(2-hydroxy-ethoxy-methyl)-phenyl]-propionamide]: the inhibition at 1 µM came out at 33%.

The experiment is the same for the next values; noted with them: @ 5µM; human VR1 in CHO K1 cells; capsaicin; relative to maximum inhibition with 10 µM capsazepine; read-out: inhibition (as a percentage), printed in column (f) Ki (human being) [nM] Cap.
As for `O=C(NCc1cc(C(F)(F)F)nn1-c1ccc(F)c(F)c1)Nc1ccc(COCCO)c(F)c1` [A132, 1-[[2-(3,4-Difluoro-phenyl)-5-(trifluoromethyl)-2H-pyrazol-3-yl]-methyl]-3-[3-fluoro-4-(2-hydroxy-ethoxy-methyl)-phenyl]-urea], the inhibition at 5 µM is 48%.

The experiment is the same for the next values; noted with them: human VR1 in CHO K1 cells; AG printed instead of a Ki.
In the case of `COc1ccc(NC(=O)NCc2cc(C(C)(C)C)nn2-c2cccc(Cl)c2)cc1OC` [A13, 1-[[5-tert-Butyl-2-(3-chlorophenyl)-2H-pyrazol-3-yl]-methyl]-3-(3,4-dimethoxyphenyl)-urea], the “(f) Ki (human being) [nM] Cap: agonist classification” value is “AG”.
The same measure, in the same setting: the result for `CC(C(=O)NCc1cc(C(C)(C)C)nn1-c1ccc(F)c(Cl)c1)c1ccc(CO)c(F)c1` (stereo not shown) [A41, N-[[5-tert-Butyl-2-(3-chloro-4-fluoro-phenyl)-2H-pyrazol-3-yl]-methyl]-2-[3-fluoro-4-(hydroxymethyl)-phenyl]-propionamide] reads “AG”.
Still for that read-out and setting: then `CC(C(=O)NCc1cc(C(C)(C)C)nn1-c1cccc(Cl)c1)c1ccc(C(O)CO)cc1` (stereo not shown) [A147, N-[[5-tert-Butyl-2-(3-chlorophenyl)-2H-pyrazol-3-yl]-methyl]-2-[4-(1,2-dihydroxy-ethyl)-phenyl]-propionamide], with “AG”.
Still for that read-out and setting: the result for `CC(O)c1ccc(C(C)C(=O)NCc2cc(C(C)(C)C)nn2-c2cccc(Cl)c2)cc1F` (stereo not shown) [A98, N-[[5-tert-Butyl-2-(3-chlorophenyl)-2H-pyrazol-3-yl]-methyl]-2-[3-fluoro-4-(1-hydroxy-ethyl)-phenyl]-propionamide] reads “AG”; that for `COc1cc(C(C)C(=O)NCc2cc(C(C)(C)C)nn2-c2cccc(Cl)c2)ccc1CO` (stereo not shown) [A49, N-[[5-tert-Butyl-2-(3-chlorophenyl)-2H-pyrazol-3-yl]-methyl]-2-[4-(hydroxymethyl)-3-methoxy-phenyl]-propionamide], “AG”; that for `CC(C(=O)NCc1cc(C(C)(C)C)nn1-c1cccc(Cl)c1)c1ccc(CO)c(Cl)c1` (stereo not shown) [A51, N-[[5-tert-Butyl-2-(3-chlorophenyl)-2H-pyrazol-3-yl]-methyl]-2-[3-chloro-4-(hydroxymethyl)-phenyl]-propionamide], “AG”.

The experiment is the same for the next values; noted with them: read-out: (f) Ki (human being) [nM] Cap.
The term Ki denotes the dissociation constant of the complex between target and ligand, obtained from inhibition or displacement. With `O=C(NCc1cc(C(F)(F)F)nn1-c1cccc(Cl)c1)Nc1ccc(OCC(O)CO)c(F)c1` (stereo not shown) [A25, 1-[[2-(3-Chlorophenyl)-5-(trifluoromethyl)-2H-pyrazol-3-yl]-methyl]-3-[4-(2,3-dihydroxy-propoxy)-3-fluoro-phenyl]-urea], the Ki worked out at 65 nM.
On to `O=C(NCc1cc(C(F)(F)F)nn1-c1ccc(F)c(Cl)c1)Nc1ccc(CO)c(F)c1` [A65, 1-[[2-(3-Chloro-4-fluoro-phenyl)-5-(trifluoromethyl)-2H-pyrazol-3-yl]-methyl]-3-[3-fluoro-4-(hydroxymethyl)-phenyl]-urea], for which the Ki amounted to 6 nM.
Same read-out and setting: then `COc1cccc(-n2nc(C(F)(F)F)cc2CNC(=O)C(C)c2ccc(COCCO)c(F)c2)c1` (stereo not shown) [A114, 2-[3-Fluoro-4-(2-hydroxy-ethoxy-methyl)-phenyl]-N-[[2-(3-methoxyphenyl)-5-(trifluoromethyl)-2H-pyrazol-3-yl]-methyl]-propionamide], with 46 nM.
Same read-out and setting: the result for `C[C@H](C(=O)NCc1cc(C(F)(F)F)nn1-c1cccc(Cl)c1)c1ccc(CO)c(F)c1` [A34, (2S)-N-[[2-(3-Chlorophenyl)-5-(trifluoromethyl)-2H-pyrazol-3-yl]-methyl]-2-[3-fluoro-4-(hydroxymethyl)-phenyl]-propionamide] reads 37 nM.
Take `COc1ccc(Cl)cc1-n1nc(C(F)(F)F)cc1CNC(=O)Nc1ccc(CO)c(F)c1` [A91, 1-[[2-(5-Chloro-2-methoxy-phenyl)-5-(trifluoromethyl)-2H-pyrazol-3-yl]-methyl]-3-[3-fluoro-4-(hydroxymethyl)-phenyl]-urea]: the Ki amounted to 51 nM.
Still for that read-out and setting: the result for `O=C(NCc1cc(C(F)(F)F)nn1-c1cccc(Cl)c1)Nc1ccc(CCO)c(F)c1` [A141, 1-[[2-(3-Chlorophenyl)-5-(trifluoromethyl)-2H-pyrazol-3-yl]-methyl]-3-[3-fluoro-4-(2-hydroxy-ethyl)-phenyl]-urea] reads 26 nM; that for `COc1cccc(-n2nc(C(F)(F)F)cc2CNC(=O)C(C)c2ccc(CO)c(F)c2)c1` (stereo not shown) [A43, 2-[3-Fluoro-4-(hydroxymethyl)-phenyl]-N-[[2-(3-methoxyphenyl)-5-(trifluoromethyl)-2H-pyrazol-3-yl]-methyl]-propionamide], 21 nM.
The same measure, in the same setting: the result for `C[C@H](C(=O)NCc1cc(C(F)(F)F)nn1-c1cccc(Cl)c1)c1ccc(COCCO)c(F)c1` [A119, (2S)-N-[[2-(3-Chlorophenyl)-5-(trifluoromethyl)-2H-pyrazol-3-yl]-methyl]-2-[3-fluoro-4-(2-hydroxy-ethoxy-methyl)-phenyl]-propionamide] reads 57 nM; that for `CC(C)(C)c1cc(CNC(=O)Nc2ccc(C(C)(CO)CO)c(F)c2)n(-c2cccc(Cl)c2)n1` [A156, 1-[[5-tert-Butyl-2-(3-chlorophenyl)-2H-pyrazol-3-yl]-methyl]-3-[3-fluoro-4-[2-hydroxy-1-(hydroxymethyl)-1-methyl-ethyl]-phenyl]-urea], 84 nM.
Same read-out and setting: then `COc1c(F)cc(C(C)C(=O)NCc2cc(C3CC3)nn2-c2cccc(Cl)c2)cc1F` (stereo not shown) [A3, N-[[2-(3-Chlorophenyl)-5-cyclopropyl-2H-pyrazol-3-yl]-methyl]-2-(3,5-difluoro-4-methoxy-phenyl)-propionamide], with 6 nM; and `COCCOCc1ccc(C(C)C(=O)NCc2cc(C(F)(F)F)nn2-c2cccc(Cl)c2)cc1F` (stereo not shown) [A111, N-[[2-(3-Chlorophenyl)-5-(trifluoromethyl)-2H-pyrazol-3-yl]-methyl]-2-[3-fluoro-4-(2-methoxy-ethoxy-methyl)-phenyl]-propionamide], with 38 nM.
Take `CC(C(=O)NCc1cc(C(F)(F)F)nn1-c1ccc(F)c(F)c1)c1ccc(CO)c(F)c1` (stereo not shown) [A40, N-[[2-(3,4-Difluoro-phenyl)-5-(trifluoromethyl)-2H-pyrazol-3-yl]-methyl]-2-[3-fluoro-4-(hydroxymethyl)-phenyl]-propionamide]: the Ki was 27 nM.
As for `O=C(NCc1cc(C(F)(F)F)nn1-c1cccc(Cl)c1)Nc1ccc(COCCO)c(F)c1` [A127, 1-[[2-(3-Chlorophenyl)-5-(trifluoromethyl)-2H-pyrazol-3-yl]-methyl]-3-[3-fluoro-4-(2-hydroxy-ethoxy-methyl)-phenyl]-urea], the Ki came to 40 nM.
On to `Cc1cccc(-n2nc(C(F)(F)F)cc2CNC(=O)Nc2ccc(CO)c(F)c2)c1C` [A72, 1-[[2-(2,3-Dimethyl-phenyl)-5-(trifluoromethyl)-2H-pyrazol-3-yl]-methyl]-3-[3-fluoro-4-(hydroxymethyl)-phenyl]-urea], for which the Ki is 14 nM.
Same read-out and setting: then `Cc1ccc(C)c(-n2nc(C(F)(F)F)cc2CNC(=O)Nc2ccc(CO)c(F)c2)c1` [A74, 1-[[2-(2,5-Dimethyl-phenyl)-5-(trifluoromethyl)-2H-pyrazol-3-yl]-methyl]-3-[3-fluoro-4-(hydroxymethyl)-phenyl]-urea], with 44 nM; and `CC(C)(C)c1cc(CNC(=O)Nc2ccc(OCCO)c(F)c2)n(-c2cccc(Cl)c2)n1` [A19, 1-[[5-tert-Butyl-2-(3-chlorophenyl)-2H-pyrazol-3-yl]-methyl]-3-[3-fluoro-4-(2-hydroxy-ethoxy)-phenyl]-urea], with 13 nM; and `CC(C(=O)NCc1cc(C(F)(F)F)nn1-c1cccc(F)c1)c1ccc(CO)c(F)c1` (stereo not shown) [A38, 2-[3-Fluoro-4-(hydroxymethyl)-phenyl]-N-[[2-(3-fluorophenyl)-5-(trifluoromethyl)-2H-pyrazol-3-yl]-methyl]-propionamide], with 11 nM.
The same measure, in the same setting: then `CC(C)(C)c1cc(CNC(=O)Nc2ccc(C3(O)COC3)cc2)n(-c2cccc(Cl)c2)n1` [A107, 1-[[5-tert-Butyl-2-(3-chlorophenyl)-2H-pyrazol-3-yl]-methyl]-3-[4-(3-hydroxy-oxetan-3-yl)-phenyl]-urea], with 45 nM; and `O=C(NCc1cc(C(F)(F)F)nn1-c1cccc(Cl)c1Cl)Nc1ccc(CO)c(F)c1` [A89, 1-[[2-(2,3-Dichloro-phenyl)-5-(trifluoromethyl)-2H-pyrazol-3-yl]-methyl]-3-[3-fluoro-4-(hydroxymethyl)-phenyl]-urea], with 45 nM; and `CC(C(=O)NCc1cc(C(C)(C)C)nn1-c1ccc(F)cc1)c1ccc(CO)c(F)c1` (stereo not shown) [A45, N-[[5-tert-Butyl-2-(4-fluorophenyl)-2H-pyrazol-3-yl]-methyl]-2-[3-fluoro-4-(hydroxymethyl)-phenyl]-propionamide], with 1 nM.
Still for that read-out and setting: then `O=C(NCc1cc(C(F)(F)F)nn1-c1cccc(F)c1)Nc1ccc(OCCO)c(F)c1` [A21, 1-[3-Fluoro-4-(2-hydroxy-ethoxy)-phenyl]-3-[[2-(3-fluorophenyl)-5-(trifluoromethyl)-2H-pyrazol-3-yl]-methyl]-urea], with 7 nM; and `CCOc1ccc(-n2nc(C(F)(F)F)cc2CNC(=O)Nc2ccc(CO)c(F)c2)cc1C` [A79, 1-[[2-(4-Ethoxy-3-methyl-phenyl)-5-(trifluoromethyl)-2H-pyrazol-3-yl]-methyl]-3-[3-fluoro-4-(hydroxymethyl)-phenyl]-urea], with 20 nM.
For the compound `O=C(NCc1cc(C(F)(F)F)nn1-c1cc(F)cc(F)c1)Nc1ccc(CO)c(F)c1` [A66, 1-[[2-(3,5-Difluoro-phenyl)-5-(trifluoromethyl)-2H-pyrazol-3-yl]-methyl]-3-[3-fluoro-4-(hydroxymethyl)-phenyl]-urea], the Ki turned out to be 9 nM.
